The source made the active and inactive calls.
How the values were obtained:
HEK293 = assay: inhibitors of LMP1-driven NF-kB reporter, dose response, cell-based, HEK293, luciferase, cherry-pick (AID 588343); type: functional; details: Homo sapiens
[1] = HEp-2 cell cytotoxicity, dose response, cytotoxicity control for RSV inhibitor project, HTS (AID 2410); type: functional; details: human respiratory syncytial virus
Cytochrome P450 3A4 = Cytochrome P450 3A4 (Homo sapiens, UniProt P08684);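 note: CYP3A4 tested as one member of a cytochrome P450 panel screen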
Cytochrome P450 3A4, sequence (P08684 whole entry): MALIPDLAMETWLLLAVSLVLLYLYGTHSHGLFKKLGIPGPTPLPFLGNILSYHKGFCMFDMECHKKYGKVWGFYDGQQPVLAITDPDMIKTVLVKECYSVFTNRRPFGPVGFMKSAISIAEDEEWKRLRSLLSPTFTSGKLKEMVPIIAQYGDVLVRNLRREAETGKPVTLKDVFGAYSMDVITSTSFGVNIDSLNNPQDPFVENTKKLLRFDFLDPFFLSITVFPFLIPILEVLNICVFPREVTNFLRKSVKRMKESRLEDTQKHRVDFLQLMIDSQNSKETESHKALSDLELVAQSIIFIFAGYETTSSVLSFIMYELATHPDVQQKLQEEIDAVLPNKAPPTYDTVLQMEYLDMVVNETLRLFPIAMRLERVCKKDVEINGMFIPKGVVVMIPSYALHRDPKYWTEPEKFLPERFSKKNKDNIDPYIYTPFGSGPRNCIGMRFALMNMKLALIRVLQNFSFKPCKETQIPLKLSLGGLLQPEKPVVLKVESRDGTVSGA

Cysteine protease ATG4B = target: T1, Cysteine protease ATG4B (Homo sapiens, UniProt Q9Y4P1); type: functional;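 note: Fluorescence-based dose-response confirmation assay measuring inhibition of ATG4B activity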
T1 sequence (Q9Y4P1 whole entry): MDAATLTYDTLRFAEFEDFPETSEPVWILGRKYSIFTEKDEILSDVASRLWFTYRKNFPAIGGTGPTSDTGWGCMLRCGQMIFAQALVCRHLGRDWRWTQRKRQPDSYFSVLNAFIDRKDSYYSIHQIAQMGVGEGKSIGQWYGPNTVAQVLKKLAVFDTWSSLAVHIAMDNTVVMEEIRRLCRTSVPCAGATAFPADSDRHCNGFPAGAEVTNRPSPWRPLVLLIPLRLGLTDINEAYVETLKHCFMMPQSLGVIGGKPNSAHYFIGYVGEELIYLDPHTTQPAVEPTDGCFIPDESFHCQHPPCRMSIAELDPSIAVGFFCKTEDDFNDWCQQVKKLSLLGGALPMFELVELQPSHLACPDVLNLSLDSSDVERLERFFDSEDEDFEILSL

Phospholipase A2 = Phospholipase A2 (Homo sapiens, UniProt P04054); type: functional;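 note: confirmatory dose-response counterscreen on phospholipase A2, testing hits that came from an ultra-high-throughput screen for ATG4B inhibitors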
Phospholipase A2, sequence (P04054 whole entry): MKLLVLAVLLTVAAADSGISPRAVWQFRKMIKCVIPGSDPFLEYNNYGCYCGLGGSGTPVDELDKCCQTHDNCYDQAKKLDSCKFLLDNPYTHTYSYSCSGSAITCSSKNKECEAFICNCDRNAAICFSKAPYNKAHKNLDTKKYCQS

[2] = target: Glucose-6-phosphate 1-dehydrogenase (Homo sapiens, UniProt P11413); assay: human G6PD enzyme inhibitors, dose response, selectivity assay for P. falciparum G6PD inhibitor project, biochemical, fluorescence (AID 504792); type: functional
Glucose-6-phosphate 1-dehydrogenase, sequence (P11413 whole entry): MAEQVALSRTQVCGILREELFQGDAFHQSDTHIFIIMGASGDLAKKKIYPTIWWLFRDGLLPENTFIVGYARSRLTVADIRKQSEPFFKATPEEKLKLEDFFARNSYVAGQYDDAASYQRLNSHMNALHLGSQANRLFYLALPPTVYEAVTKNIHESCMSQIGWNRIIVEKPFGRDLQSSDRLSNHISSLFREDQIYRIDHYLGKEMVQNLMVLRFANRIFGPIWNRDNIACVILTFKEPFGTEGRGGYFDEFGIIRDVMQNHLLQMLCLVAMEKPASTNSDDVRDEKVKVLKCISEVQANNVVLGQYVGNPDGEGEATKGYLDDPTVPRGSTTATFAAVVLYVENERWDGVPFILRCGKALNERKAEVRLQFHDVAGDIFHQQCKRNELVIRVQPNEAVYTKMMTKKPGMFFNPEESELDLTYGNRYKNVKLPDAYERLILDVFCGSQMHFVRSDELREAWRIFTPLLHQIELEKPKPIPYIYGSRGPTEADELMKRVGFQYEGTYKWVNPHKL

[3] = intracellular Trypanosoma cruzi inhibitors in host cells – cell-based, plate reader, cherry-pick samples, set 3, dose response (AID 651818); type: functional;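 note: compounds incubated with infected cells for about four days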
[4] = Luminescence Cell-Based Dose Retest to Confirm Inhibitors of Cancer Stem Cells. [Related pubchem assays (depositor defined):AID2717, AID2721]; type: functional; details: Homo sapiens
[5] = HepG2 cell cytotoxicity, dose response, cytotoxicity control, cherry-picked samples (AID 1159577); type: functional, cell-based
[6] = P. falciparum Dd2 growth inhibitors, dose response, SYBR Green, cherry-picked samples (AID 1159567); type: functional, cell-based
Troponin, cardiac muscle = Troponin, cardiac muscle (Homo sapiens, UniProt P19429+P45379+P63316); assay: Fluorescence-based biochemical high throughput dose response assay for activators of the calcium sensitivity of cardiac Regulated Thin Filaments (RTF). [Related pubchem assays (depositor defined):AID493008, AID493018, AID504382, AID504383]; type: protein-complex assay
[7] = target: T2, Heat shock factor protein 1 (Mus musculus, UniProt P38532); assay: HSF1 potentiators in luciferase reporter cells, confirmation, cell-based, NIH3T3, luminescence, dose retest (AID 435004); type: functional;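 note: stress induced by proteasome inhibitor MG132 added 30 min after compound; luciferase reporter driven by HSF1 response element in NIH3T3 cells; actives raise luminescence as potentiators of the MG132 stress response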
T2 sequence (P38532 whole entry): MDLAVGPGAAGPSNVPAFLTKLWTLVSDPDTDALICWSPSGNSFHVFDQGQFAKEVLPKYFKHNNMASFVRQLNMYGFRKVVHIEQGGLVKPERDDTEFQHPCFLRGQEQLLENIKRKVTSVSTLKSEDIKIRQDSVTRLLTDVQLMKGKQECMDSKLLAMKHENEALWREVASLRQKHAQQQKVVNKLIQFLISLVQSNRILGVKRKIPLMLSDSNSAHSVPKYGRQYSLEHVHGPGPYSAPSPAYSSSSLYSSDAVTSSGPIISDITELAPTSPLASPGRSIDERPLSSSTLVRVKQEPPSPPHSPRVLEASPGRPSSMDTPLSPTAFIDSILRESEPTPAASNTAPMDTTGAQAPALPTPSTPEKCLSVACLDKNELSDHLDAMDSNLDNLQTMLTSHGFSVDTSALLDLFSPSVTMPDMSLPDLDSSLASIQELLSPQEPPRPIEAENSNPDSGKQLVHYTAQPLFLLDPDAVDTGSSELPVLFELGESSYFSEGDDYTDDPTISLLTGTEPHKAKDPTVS

SMILES: COc1ccc2cc(-c3cc(C(=O)O)c4ccccc4n3)ccc2c1
- AC50 (HEK293): 1.05 µM (active)
- IC50 (cells): 40.9 µM (active)
- CC50 [1]: 22.5 µM (active)

SMILES: O=C(c1ccco1)N1CCC2(CC1)CCN(c1ccc(-c3ccccc3)cc1)CC2
- AC50 (Cytochrome P450 3A4): inconclusive

SMILES: COC(=O)c1ccc(C(=O)N2CCCC(Nc3ccc(C(C)C)cc3)C2)nc1 (stereo unspecified)
- IC50 (Cysteine protease ATG4B): 17.9 µM (active)
- IC50 (Phospholipase A2): 12.3 µM (active)

SMILES: O=C1CCC[C@@H]2[C@@H](Cc3ccccc3)[C@H](N3CCN(c4ccccc4)CC3)C[C@@H]3CCN1[C@@H]32
- IC50 [2]: > 80 µM (inactive)

SMILES: C[C@H]1CN([C@@H](C)CO)C(=O)Cc2cc(NC(=O)Nc3ccccc3)ccc2O[C@H]1CN(C)Cc1ccc(C(F)(F)F)cc1
- AC50 [3]: 3.26 µM (active)

SMILES: Cc1ccc(/C=C/C(=O)NCC2COc3ccccc3O2)o1 (stereo unspecified)
- IC50 [2]: > 80 µM (inactive)
- AC50 [4]: 33.1 µM (active)

SMILES: C/C=C/c1ccccc1[C@H]1[C@@H](C#N)N(c2nc(CC)cs2)[C@@H]1CO
- AC50 [5]: 21.4 µM (active)
- AC50 [6]: 3.11 µM (active)

SMILES: Cn1nc(NC(=O)C2CCC2C(=O)O)c2c(F)cccc21 (stereo unspecified)
- EC50 (Troponin, cardiac muscle): > 71.5 µM (inactive)

SMILES: C[C@H]1CN([C@@H](C)CO)C(=O)c2cccc(NC(=O)c3nc4ccccc4s3)c2O[C@@H]1CN(C)S(=O)(=O)c1ccc(Cl)cc1
- AC50 [3]: 1.8 µM (active)

SMILES: COc1c(O)cccc1-c1nnn(CCC(=O)OCC(=O)c2ccccc2)n1
- EC50 (Troponin, cardiac muscle): > 71.5 µM (inactive)

SMILES: Cc1ccc(C(=O)O/N=C2\CCCc3ccccc32)cc1
- IC50 (Cysteine protease ATG4B): 8.65 µM (active)
- IC50 (Phospholipase A2): 2.83 µM (active)

SMILES: Cc1ccc(S(=O)(=O)Nc2ccc3c(c2)C(=O)N([C@@H](C)CO)C[C@H](C)[C@H](CN(C)Cc2ccc(Cl)c(Cl)c2)O3)cc1
- AC50 [3]: 5.67 µM (active)

SMILES: COC(=O)C(C)N(C(=O)c1ccc(C(=O)c2ccccc2)cc1)c1c(C)cccc1C (stereo unspecified)
- EC50 [7]: > 260 µM (inactive)
- IC50 (Cysteine protease ATG4B): 9.78 µM (active)
- IC50 (Phospholipase A2): 8.13 µM (active)

— ChEMBL document CHEMBL1201862, “PubChem BioAssay data set” (2004)
